According to US8987268B2, “Pyrrolopyridazine JAK3 inhibitors and their use for the treatment of inflammatory and autoimmune diseases” (Bristol-Myers Squibb Company, priority 2011, dated 2015):

Experiments:
GST-JAK3 enzyme = GST-JAK3 enzyme (Homo sapiens (Human), UniProt P52333); assay: JAK3 Kinase Assay Protocol (Caliper); assay type: biochemical; conditions: JAK3 kinase inhibition; read-out: LLE_JAK3_FB (IC50)
Protocol: JAK3 Kinase Assay Protocol (Caliper)
(§1) The assay reactions were performed in U-bottom 384-well plates. […] The reaction was initiated by the combination of GST-JAK3 enzyme with substrates and test compounds. The reactions were incubated at room temperature for 3 hours and terminated by adding 60 μl of 35 mM EDTA to each sample. Each reaction mixture was analyzed on the Caliper LabChip 3000 (Caliper, Hopkinton, Mass.) by electrophoretic separation of the fluorescent substrate and phosphorylated product. […] Compounds were dissolved at 10 mM in dimethylsulfoxide (DMSO) and evaluated at eleven concentrations. IC50 values were derived by non-linear regression analysis.

GST-JAK1 enzyme = GST-JAK1 enzyme (Homo sapiens (Human), UniProt P23458); assay: JAK1 Kinase Assay Protocol; assay type: biochemical; conditions: JAK1 kinase inhibition; read-out: LLE_JAK1 (IC50)
GST-JAK1 enzyme, sequence (P23458 whole entry): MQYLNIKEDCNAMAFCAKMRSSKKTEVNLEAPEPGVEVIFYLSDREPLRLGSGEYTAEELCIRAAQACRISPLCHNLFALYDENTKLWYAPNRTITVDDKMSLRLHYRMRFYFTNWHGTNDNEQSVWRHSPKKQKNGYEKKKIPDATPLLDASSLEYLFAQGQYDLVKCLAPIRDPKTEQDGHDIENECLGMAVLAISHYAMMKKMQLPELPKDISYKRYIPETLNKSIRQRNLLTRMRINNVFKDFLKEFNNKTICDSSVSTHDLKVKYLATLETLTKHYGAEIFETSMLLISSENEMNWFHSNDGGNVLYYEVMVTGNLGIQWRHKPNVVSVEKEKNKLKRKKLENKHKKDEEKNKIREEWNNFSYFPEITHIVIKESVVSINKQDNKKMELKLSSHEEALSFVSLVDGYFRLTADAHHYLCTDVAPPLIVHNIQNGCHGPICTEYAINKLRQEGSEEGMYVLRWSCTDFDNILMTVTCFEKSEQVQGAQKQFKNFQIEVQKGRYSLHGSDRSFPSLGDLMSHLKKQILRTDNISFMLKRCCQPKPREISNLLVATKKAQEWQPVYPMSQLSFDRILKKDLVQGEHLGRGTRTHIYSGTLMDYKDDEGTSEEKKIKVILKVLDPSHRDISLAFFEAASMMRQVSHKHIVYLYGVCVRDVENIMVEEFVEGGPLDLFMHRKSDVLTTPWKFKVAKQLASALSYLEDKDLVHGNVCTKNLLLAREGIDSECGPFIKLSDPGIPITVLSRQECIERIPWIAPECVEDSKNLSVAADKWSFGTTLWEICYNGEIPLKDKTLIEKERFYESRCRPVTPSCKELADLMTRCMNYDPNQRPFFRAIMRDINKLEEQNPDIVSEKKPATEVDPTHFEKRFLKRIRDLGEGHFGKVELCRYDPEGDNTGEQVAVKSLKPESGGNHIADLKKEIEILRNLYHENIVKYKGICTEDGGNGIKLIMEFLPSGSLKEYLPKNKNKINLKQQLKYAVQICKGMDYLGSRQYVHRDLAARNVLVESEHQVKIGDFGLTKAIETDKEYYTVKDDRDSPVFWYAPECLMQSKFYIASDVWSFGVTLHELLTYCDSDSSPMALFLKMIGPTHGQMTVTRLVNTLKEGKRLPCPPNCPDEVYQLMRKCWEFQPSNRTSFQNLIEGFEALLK
Protocol: JAK1 Kinase Assay Protocol
as §1, with “GST-JAK1” for “GST-JAK3”

GST-JAK3 enzyme, sequence (P52333 whole entry): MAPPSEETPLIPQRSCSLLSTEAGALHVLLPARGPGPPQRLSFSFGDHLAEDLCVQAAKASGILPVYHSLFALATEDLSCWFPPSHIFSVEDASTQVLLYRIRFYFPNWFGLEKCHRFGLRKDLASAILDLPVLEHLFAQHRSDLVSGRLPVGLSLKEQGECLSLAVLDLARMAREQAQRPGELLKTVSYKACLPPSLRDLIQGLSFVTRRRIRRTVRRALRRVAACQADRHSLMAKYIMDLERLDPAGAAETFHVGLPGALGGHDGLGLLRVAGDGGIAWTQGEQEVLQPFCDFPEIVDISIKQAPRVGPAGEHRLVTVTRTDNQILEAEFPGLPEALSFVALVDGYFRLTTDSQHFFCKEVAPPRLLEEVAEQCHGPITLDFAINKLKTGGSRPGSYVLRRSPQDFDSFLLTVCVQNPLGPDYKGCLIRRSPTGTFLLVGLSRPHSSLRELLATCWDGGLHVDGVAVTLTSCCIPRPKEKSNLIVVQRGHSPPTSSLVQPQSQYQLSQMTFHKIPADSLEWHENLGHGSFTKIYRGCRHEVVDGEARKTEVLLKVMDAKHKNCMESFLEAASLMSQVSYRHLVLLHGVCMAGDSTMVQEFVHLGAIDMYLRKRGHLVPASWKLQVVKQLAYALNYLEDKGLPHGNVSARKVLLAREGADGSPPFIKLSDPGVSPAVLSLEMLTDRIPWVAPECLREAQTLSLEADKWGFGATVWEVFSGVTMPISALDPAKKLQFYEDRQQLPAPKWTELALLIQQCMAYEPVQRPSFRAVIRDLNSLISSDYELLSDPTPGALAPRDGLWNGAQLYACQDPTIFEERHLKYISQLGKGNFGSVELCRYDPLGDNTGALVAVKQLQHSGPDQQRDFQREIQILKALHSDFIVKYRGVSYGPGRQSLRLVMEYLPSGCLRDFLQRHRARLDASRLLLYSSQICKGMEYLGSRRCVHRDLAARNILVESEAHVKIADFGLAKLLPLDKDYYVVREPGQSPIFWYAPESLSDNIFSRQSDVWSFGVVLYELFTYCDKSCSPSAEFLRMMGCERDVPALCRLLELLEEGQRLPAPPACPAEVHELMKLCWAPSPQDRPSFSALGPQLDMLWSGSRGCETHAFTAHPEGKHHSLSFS

Row | IC50 (GST-JAK3 enzyme) [nM] | IC50 (GST-JAK1 enzyme) [nM] | Structure (SMILES)
1 | 1.5 | 0.5 | CNC(=O)c1cccc(-c2cc3c(N[C@@H]4CN(C(=O)C5(C#N)CC5)C[C@@H]4OC)c(C(N)=O)cnn3c2)c1 [Example 303, 4-(((3R,4S)-1-(1-cyanocyclopropanecarbonyl)-4-methoxypyrrolidin-3-yl)amino)-6-(3-(methylcarbamoyl)phenyl)pyrrolo[1,2-b]pyridazine-3-carboxamide]
2 | 1.5 | 1.1 | CO[C@H]1CN(C(=O)C2(C#N)CC2)C[C@H]1Nc1c(C(N)=O)cnn2cc(-c3ccc(F)cc3)cc12 [Example 305, 4-(((3R,4S)-1-(1-cyanocyclopropanecarbonyl)-4-methoxypyrrolidin-3-yl)amino)-6-(4-fluorophenyl)pyrrolo[1,2-b]pyridazine-3-carboxamide]
3 | 6.6 | 1.5 | CO[C@H]1CN(C(=O)C2(C#N)CC2)C[C@H]1Nc1c(C(N)=O)cnn2cc(-c3ccc(C#N)cc3)cc12 [Example 308, 4-(((3R,4S)-1-(1-cyanocyclopropanecarbonyl)-4-methoxypyrrolidin-3-yl)amino)-6-(4-cyanophenyl)pyrrolo[1,2-b]pyridazine-3-carboxamide]
4 | 8.9 | 8 | COc1ccc(-c2cc3c(N[C@@H]4CN(S(C)(=O)=O)C[C@@H]4OC)c(C(N)=O)cnn3c2)cn1 [Example 315, 4-((3R,4S)-4-methoxy-1-(methylsulfonyl)pyrrolidin-3-ylamino)-6-(6-methoxypyridin-3-yl)pyrrolo[1,2-b]pyridazine-3-carboxamide]
